Assay results taken from patent US9821002B2, “Method for alleviating radiation injury with isorhamnetin-3-O-β-D-glucoside” (Sinotai Oncology Associate., Ltd., priority 2015, dated 2017).

Columns and labels:
Type in all cases: cell-based, mouse
[1] = tested on: BNL CL.2 cells; test: Apoptosis assay (FITC Annexin V/PI) after X-ray irradiation; conditions: 2 h pretreatment, X-ray 15 Gy, 96 hours, mean ± SEM
Description: (§1) Four groups of BNL CL.2 cells (i.e., a normal control group referred to as Normal Control Group 1-A, an X-ray control group referred to as X-Ray Control Group 1-A, and two experimental groups referred to as Experimental Groups 1-A to 2-A), and six groups of NMuMG cells (i.e., a normal control group referred to as Normal Control Group 1-B, an X-ray control group referred to as X-Ray Control Group 1-B, two isorhamnetin groups referred to as Isorhamnetin Groups 1 to 2, and two experimental groups referred to as Experimental Groups 1-B to 2-B), were prepared based on the procedure set forth in “Source and cultivation of cell lines” of “Experimental materials”. BNL CL.2 cells in each group were cultivated using 5 mL of a corresponding medium shown in Table 1 and a 6-cm Petri dish in an amount of 2×10^5 cells per dish. Likewise, NMuMG cells in each group were cultivated using 5 mL of a corresponding medium shown in Table 1 and a 6-cm Petri dish in an amount of 2.5×10^5 cells per dish. The cultivation was conducted in an incubator (37° C., 5% CO2) for 24 hours.
(§2) Subsequently, medium was replaced with fresh medium. The obtained cultures in Experimental Groups 1-A, 1-B, 2-A, and 2-B were pretreated with the stock solution of isorhamnetin-3-O-β-D-glucoside, and the obtained cultures in Isorhamnetin Groups 1 to 2 were pretreated with the stock solution of isorhamnetin.
(§3) The culture in each group was then cultivated in an incubator (37° C., 5% CO2) for two hours. The resultant culture was used for the following experiments in sections B to D.
(§4) The cultures in X-Ray Control Group 1-A, X-Ray Control Group 1-B, Isorhamnetin Group 1, Isorhamnetin Group 2, Experimental Group 1-A, Experimental Group 1-B, Experimental Group 2-A, and Experimental Group 2-B, prepared according to section A of “Experimental procedures” in this example, were subjected to X-ray irradiation using a linear accelerator at a dose of 15 Gy. The cultures in Normal Control Groups 1-A and 1-B received no X-ray irradiation treatment. The culture of BNL CL.2 cells in each group was cultivated using a 6-cm Petri dish in an incubator (37° C., 5% CO2) for 96 hours, and the culture of NMuMG cells in each group was cultivated using a 6-cm Petri dish in an incubator (37° C., 5% CO2) for 72 hours. 1 mL of trypsin-EDTA was added to the culture in each group so as to detach the cells from the bottom of the Petri dish. Following this, 1 mL of a fresh medium (corresponding to the medium described in Table 1) was added to neutralize the activity of the trypsin, and the resultant cell suspension was transferred to a centrifuge tube with a pipette, followed by centrifugation at 1200 rpm for three minutes. The supernatant was removed, and the cell pellet thus obtained was washed once with cold PBS (pH 7.4), followed by centrifugation at 1200 rpm for 3 minutes. The supernatant was removed, and 100 μL of cold Annexin V binding buffer (BD Pharmingen™) was added to sufficiently re-suspend the cell pellet thereby obtaining a cell suspension having a cell concentration of 1.0×10^6 cells/mL. Afterward, 5 μL of FITC Annexin V (BD Pharmingen™) and 5 μL of propidium iodide (PI) staining solution (BD Pharmingen™) were added to the obtained cell suspension, followed by mixing evenly and standing in the dark at 4° C. for 30 minutes so as to obtain stained cells.
(§5) Subsequently, the stained cells were analyzed using BD Accuri™ C6 flow cytometry, in which cells that could be stained with FITC Annexin V but not with PI (i.e., FITC Annexin V positive and PI negative) represented cells that were induced with early apoptosis; cells stained with both FITC Annexin V and PI (i.e., FITC Annexin V positive and PI positive) represented cells that were induced with late apoptosis; and cells that could not be stained with FITC Annexin V and PI (i.e., FITC Annexin V negative and PI negative) represented viable cells. The number of stained cells was calculated using BD Accuri™ C6 software. […]

[2] = tested on: NMuMG cells; test: as above; conditions: 2 h pretreatment, X-ray 15 Gy, 72 hours, mean ± SEM
Description: as §1, §2, §3, §4, §5

[3] = tested on: BNL CL.2 cells; test: Mitochondrial membrane potential assay (JC-1) after X-ray irradiation; conditions: 5 μM, 2 h pretreatment, X-ray 15 Gy, 120 hours, mean ± SEM
Description: (§6) Four groups of BNL CL.2 cells (i.e., a normal control group referred to as Normal Control Group 1-A, an X-ray control group referred to as X-Ray Control Group 1-A, and two experimental groups referred to as Experimental Groups 1-A to 2-A), and six groups of NMuMG cells (i.e., a normal control group referred to as Normal Control Group 1-B, an X-ray control group referred to as X-Ray Control Group 1-B, two isorhamnetin groups referred to as Isorhamnetin Groups 1 to 2, and two experimental groups referred to as Experimental Groups 1-B to 2-B), were prepared based on the procedure set forth in “Source and cultivation of cell lines” of “Experimental materials”. BNL CL.2 cells in each group were cultivated using 5 mL of a corresponding medium shown in Table 1 and a 6-cm Petri dish in an amount of 2×10^5 cells per dish. Likewise, NMuMG cells in each group were cultivated using 5 mL of a corresponding medium shown in Table 1 and a 6-cm Petri dish in an amount of 2.5×10^5 cells per dish. The cultivation was conducted in an incubator (37° C., 5% CO2) for 24 hours. […]
(§7) 1 mL of trypsin-EDTA was added so as to detach the cells from the bottom of the Petri dish. […] Mitochondrial membrane potential assay was conducted using BD Accuri™ C6 flow cytometry, and the percentage of mitochondrial membrane potential depolarization (%) was calculated using BD Accuri™ C6 software.

[4] = tested on: NMuMG cells; test: as above; conditions: 15 μM, 2 h pretreatment, X-ray 10 Gy, 48 hours, mean ± SEM
Description: as §6, §7

For `COc1cc(-c2oc3cc(O)cc(O)c3c(=O)c2O[C@@H]2O[C@H](CO)[C@@H](O)[C@H](O)[C@H]2O)ccc1O` [isorhamnetin-3-O-β-D-glucoside], the Apoptosis percentage ([1]; 5 μM) was 30.28 ± 3.09%, the Apoptosis percentage ([1]; 30 μM) was 29.35 ± 1.92 % and the Apoptosis percentage ([2]; 15 μM) was 17.77 ± 0.88 %. For the same compound, the Apoptosis percentage ([2]; 30 μM) was 16.5 ± 0.62 %, the “Percentage of mitochondrial membrane potential depolarization” value [3] was 16 ± 2.97 % and the “Percentage of mitochondrial membrane potential depolarization” value [4] was 30.05 ± 1.07 %.
